Measurements: patent US8466149B2, “6-substituted sulfonyl azabicyclo[3.2.1]octanes useful to inhibit 11β-hydroxysteroid dehydrogenase type-I” (Merck Sharp & Dohme Corp., priority 2007, dated 2013)

Legend:
[1] = target: Mouse 11β-HSD-1 (Mus musculus, UniProt P50172); test: In vitro 11β-HSD1 activity assay, mouse enzyme; assay type: biochemical
Description: (§1) Measurement of 11β-HSD1 activity
(§2) 11β-HSD1 enzymatic activity was measured in a 50 μl reaction containing 20 mM NaPO4 pH 7.5, 0.1 mM MgCl2, 3 mM NADPH (prepared fresh daily), 125 nM ^3H-cortisone (American Radiochemicals) and 0.5 μg membrane. The reaction was incubated at room temperature for 1 hr before it was stopped by addition of […] containing 20 mM NaPO4 pH 7.5, 30 μM 18β-glycyrrhetinic acid, 1 μg/ml monoclonal anti-cortisol antibody (Biosource) and 2 mg/ml anti-mouse antibody coated scintillation proximity assay (SPA) beads (Amersham Bioscience). The mixture was incubated at room temperature for 2 hrs with vigorous shaking and analyzed on TopCount scintillation counter.

[2] = target: T1, Human 11β-HSD1 (Homo sapiens, UniProt P28845); test: In vitro 11β-HSD1 activity assay (SPA, 3H-cortisone, membranes); assay type: biochemical; conditions: human 11β-HSD1 membranes, 125 nM 3H-cortisone, read-out: Human 11β-HSD-1 IC50
T1 construct: myc (N); made in house; host or cells: Sf9 cells (baculovirus, Bac-to-Bac)
T1 sequence (P28845 whole entry): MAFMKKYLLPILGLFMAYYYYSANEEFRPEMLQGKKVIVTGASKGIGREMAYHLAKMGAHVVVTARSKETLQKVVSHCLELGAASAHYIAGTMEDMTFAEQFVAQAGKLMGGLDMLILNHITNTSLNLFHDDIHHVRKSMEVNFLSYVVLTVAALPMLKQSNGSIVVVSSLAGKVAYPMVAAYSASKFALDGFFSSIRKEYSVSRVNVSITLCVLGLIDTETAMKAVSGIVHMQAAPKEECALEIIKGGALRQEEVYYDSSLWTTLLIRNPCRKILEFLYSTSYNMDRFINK
Description: In vitro 11β-HSD1 activity assay Preparation of 11β-HSD1 membranes
Human 11β-HSD1 with N-terminal myc tag was expressed in Sf9 cells using baculovirus Bac-to-Bac expression system (Invitrogen) according to manufacturer's instructions. Cells were harvested three days after infection and washed in PBS before frozen. To make membranes, the cells were resuspended in buffer A (20 mM Tris-HCl, pH7.4, 100 mM NaCl, 2 mM EDTA, 2 mM EGTA and Complete™ protease inhibitor tablets (Roche Molecular Biochemicals)), and lysed in a nitrogen bomb at 900 psi. The cell lysate was centrifuged at 600 g for 10 min to remove nuclei and large cell debris. The supernatant was centrifuged at 100,000 g for 1 hr. The membrane pellet was resuspended in buffer A, flash-frozen in liquid nitrogen and stored at −70° C. before use.
as §1, §2

[3] = target: T2, 11β-HSD-1 (Mus musculus, UniProt P50172); test: In vivo screen for inhibition of 11β-HSD-1 (mouse cortisone challenge, plasma cortisol); conditions: 30 mpk oral, lean male C57BI/6N mice, cortisone 1 mg/kg sc, plasma cortisol by ELISA
T2 construct: from tissue; host or cells: whole animal, C57Bl/6N mice
T2 sequence (P50172 whole entry): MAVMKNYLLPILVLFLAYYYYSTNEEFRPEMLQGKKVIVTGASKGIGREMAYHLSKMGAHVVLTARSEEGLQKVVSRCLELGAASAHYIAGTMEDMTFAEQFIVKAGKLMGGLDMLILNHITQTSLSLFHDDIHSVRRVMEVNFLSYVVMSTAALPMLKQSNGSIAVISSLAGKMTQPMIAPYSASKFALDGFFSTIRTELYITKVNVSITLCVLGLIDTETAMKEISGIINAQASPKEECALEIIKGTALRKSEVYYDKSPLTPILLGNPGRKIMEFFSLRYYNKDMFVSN
Description: In Vivo Screen for Inhibition of 11β-HSD-1
Lean male C57BI/6N mice were orally dosed with a solution of dexamethasone (0.5 mg/kg) and test agent or vehicle (20% HPβCD (10 ml/kg)). One hour later, cortisone was administered (1 mg/kg sc in sesame oil). One hour after cortisone administration, animals were euthanized for blood collection, and plasma cortisol levels were determined with a commercially available ELISA.

Mouse 11β-HSD-1, sequence (P50172 whole entry): as above

| Structure (SMILES) | IC50 [1] | IC50 [2] | Mouse cort. challenge % I @ 30 mpk [3] |
| --- | --- | --- | --- |
| CC1(C)CC2CC(C)(CN2S(=O)(=O)Cc2ccccc2)C1 (stereo not drawn) [compound 4] | 7930 nM | 3390 nM |  |
| CC1(C)CC2CC(C)(CN2S(=O)(=O)c2ccc(C#N)cc2)C1 (stereo not drawn) [compound 76] | 1820 nM | 126 nM |  |
| CC1(C)CC2CC(C)(CN2S(=O)(=O)c2ccc(C(C)(C)C)cc2)C1 (stereo not drawn) [Compound No. 1] | 71 nM | 31 nM | 30% |
| CC1(C)CC2CC(C)(CN2S(=O)(=O)c2ccc(-c3cnco3)cc2)C1 (stereo not drawn) [compound 62] | 309 nM | 96 nM |  |
| CC1(C)CC2CC(C)(CN2S(=O)(=O)c2ccccc2Cl)C1 (stereo not drawn) [compound 12] | 28200 nM | 1410 nM |  |
| CC1(C)CC2CC(C)(CN2S(=O)(=O)c2ccc(C3CCCCC3)cc2)C1 (stereo not drawn) [compound 61] | 165 nM | 415 nM |  |
| CCC(C)(O)c1ccc(S(=O)(=O)N2CC3(C)CC2CC(C)(C)C3)cc1 (stereo not drawn) [compound 69] | 68 nM | 30 nM |  |
| CC1(C)CC2CC(C)(CN2S(=O)(=O)c2ccc(Cl)c3nonc23)C1 (stereo not drawn) [compound 3] | 1870 nM | 407 nM |  |
| CC1(C)CC2CC(C)(CN2S(=O)(=O)c2ccc(-c3ccccc3)cc2)C1 (stereo not drawn) [compound 25] | 364 nM | 169 nM |  |
| COc1cccc(S(=O)(=O)N2CC3(C)CC2CC(C)(C)C3)c1 (stereo not drawn) [compound 10] | 3170 nM | 2510 nM |  |
| CC1(C)CC2CC(C)(CN2S(=O)(=O)c2ccc(Cl)cc2)C1 (stereo not drawn) [compound 13] | 2480 nM | 407 nM |  |
| CC(C)c1ccc(S(=O)(=O)N2CC3(C)CC2CC(C)(C)C3)cc1 (stereo not drawn) [compound 17] | 127 nM | 67 nM |  |
| Cc1ccc(S(=O)(=O)N2CC3(C)CC2CC(C)(C)C3)cc1 (stereo not drawn) [Compound No. 6] | 670 nM | 247 nM |  |
| CC1(C)CC2CC(C)(CN2S(=O)(=O)c2ccc(C(F)(F)F)cc2)C1 (stereo not drawn) [compound 48] | 686 nM | 268 nM |  |
| CCC(C)c1ccc(S(=O)(=O)N2CC3(C)CC2CC(C)(C)C3)cc1 (stereo not drawn) [compound 68] | 112 nM | 55 nM |  |
| CC1(C)CC2CC(C)(CN2S(=O)(=O)c2ccc(-c3csnn3)cc2)C1 (stereo not drawn) [compound 63] | 305 nM | 111 nM |  |
| CC1(C)CC2CC(C)(CN2S(=O)(=O)c2ccc([N+](=O)[O-])cc2)C1 (stereo not drawn) [compound 75] | 5940 nM | 126 nM |  |
| CCOC(C)c1ccc(S(=O)(=O)N2CC3(C)CC2CC(C)(C)C3)cc1 (stereo not drawn) [compound 46] | 87 nM | 10 nM |  |

The remaining molecules from weak to strong by IC50 [1], led by results:

| IC50 [1] | IC50 [2] | Mouse cort. challenge % I @ 30 mpk [3] | Structure (SMILES) |
| --- | --- | --- | --- |
| 18200 nM | 3010 nM |  | Cc1ccccc1S(=O)(=O)N1CC2(C)CC1CC(C)(C)C2 (stereo not drawn) [Compound No. 5] |
| 13300 nM | 5710 nM |  | CC1(C)CC2CC(C)(CN2S(=O)(=O)c2ccccc2C#N)C1 (stereo not drawn) [compound 29] |
| 3170 nM | 2510 nM |  | CC1(C)CC2CC(C)(CN2S(=O)(=O)c2ccc(I)cc2)C1 (stereo not drawn) [compound 32] |
| 950 nM | 372 nM |  | CCCCc1ccc(S(=O)(=O)N2CC3(C)CC2CC(C)(C)C3)cc1 (stereo not drawn) [compound 65] |
| 732 nM | 139 nM |  | CC(=O)c1ccc(S(=O)(=O)N2CC3(C)CC2CC(C)(C)C3)cc1 (stereo not drawn) [Compound No. 16] |
| 420 nM | 190 nM |  | CCc1ccc(S(=O)(=O)N2CC3(C)CC2CC(C)(C)C3)cc1 (stereo not drawn) [compound 9] |
| 217 nM | 340 nM |  | CC(C)Oc1ccc(S(=O)(=O)N2CC3(C)CC2CC(C)(C)C3)cc1 (stereo not drawn) [compound 64] |
| 67 nM | 16 nM | 63% | CC(O)c1ccc(S(=O)(=O)N2CC3(C)CC2CC(C)(C)C3)cc1 (stereo not drawn) [compound 44] |
| 43 nM | 7 nM | 43% | CC1(C)CC2CC(C)(CN2S(=O)(=O)c2ccc(C(C)(C)O)cc2)C1 (stereo not drawn) [compound 50] |
| 27 nM | 19 nM | 16% | COC(C)c1ccc(S(=O)(=O)N2CC3(C)CC2CC(C)(C)C3)cc1 (stereo not drawn) [compound 45] |
| 19 nM | 28 nM | 26% | CCC(C)(C)c1ccc(S(=O)(=O)N2CC3(C)CC2CC(C)(C)C3)cc1 (stereo not drawn) [Compound No. 23] |
| 11 nM | 23 nM | 19% | COC(C)(C)c1ccc(S(=O)(=O)N2CC3CC(C)(C2)CC3(C)C)cc1 (stereo not drawn) [compound 49] |
